Consider 10 molecules from US4910318A, “Tetrahydrothiopyrano(3,2-b)-indole derivatives” (Shionogi & Co., Ltd., priority 1980, dated 1990).

Molecules are shown by their SMILES. Where a name gives a salt, the structure may show the parent alone.

One data set has as its system Carrageenin edema. Put plainly: Anti-inflammatory activity (Carrageenin edema method). The class given is in vivo, JCl-Wistar female rats. To be noted: Rattus norvegicus; rats, oral, 30 min before carrageenin; swelling measured 3 hours later; read-out: Anti-inflammatory activity ED30 (Test (1)). As to the method: (1) Anti-inflammatory activity (Carrageenin edema method)
A 0.9% saline solution (0.05 ml) containing 1.0% carrageenin is used as phlogistic agent. After 30 minutes JCl-Wistar female rats (180-200 g, body weight) are orally administered a test compound, the phlogistic agent is injected subcutaneously into the plantar of the feet of the rats. The volume of swelling is measured 3 hours later and the anti-edema activity is determined by calculating a ratio (%) of the edematous volume of medicated foot to that of non-medicated foot.
Background: The carrageenan paw model is a standard test of acute inflammation.

The test system of the next data set is Acetic acid writhing. As to the kind of experiment: Analgesic activity (Acetic acid writhing method). The data set is classed as in vivo, DS male mice. Conditions: Mus musculus; mice, oral, 30 min before acetic acid i.p.; writhing counted for 10 minutes; read-out: Analgesic activity ED50 (Test (2)). As to the method: (2) Analgesic activity (Acetic acid writhing method)
DS male mice (20-23 g, body weight) are treated with an intraperitoneal injection of 0.1 ml/10 g of 0.6% acetic acid 30 minutes after oral administration of a test compound. The number of writhing times for 10 minutes is counted and ED50 is calculated.

A short description of the next data set: Acute toxicity. To be noted: mouse, in vivo; mice, oral, mortality at the 72nd hour; read-out: Acute toxicity LD50 (Test (3)). As to the method:
DS mice (20-23 g, male) are orally administered a suspension of test compound with gum arabic. The mortality at the 72nd hour is determined and the LD50 is calculated.

For the next data set, the system named is tetrabenazine ptosis. Put plainly: Antidepressant activity: Anti-tetrabenazine ptosis test. The class given is in vivo, mice. Conditions: for ED50: Mus musculus, mice, oral, 1 hour before TBZ 50 mg/kg s.c., ptosis 1 hour after TBZ. As to the method: (§1) (4) Antidepressant activity
(4)-a Anti-tetrabenazine ptosis test
Tetrabenazine (TBZ, 50 mg/kg s.c.) was administered to 5 mice for each group 1 hour after oral treatment with test compounds. […] (4=complete, 3=3/4, 2=1/2, 1=[…] closure of the eyelid, 0=normal).

Data set [1] deals with minimal electroshock seizures with reserpine. As to the kind of experiment: Antidepressant activity: Anti-electroshock test with reserpine. Conditions: for ED50: Mus musculus, po, mice, p.o., 0.5 hour before reserpine 2.5 mg/kg s.c., 12 mA, 0.2 sec, 4 hours after reserpine. The class given is in vivo, mice. As to the method:
as §1
(4)-b Anti-electroshock test with reserpine
Seizures were induced by shocking mice (10 per dose) via a pair of corneal electrodes with current intensity of 12 mA and a duration of 0.2 sec 4 hours after administration of reserpine.

In the next data set the test system is oxotremorine hypothermia. As to the kind of experiment: Anti-cholinergic activity (Anti-oxotremorine hypothermia test). The class given is in vivo, mice. To be noted: for ED50: Mus musculus, mice, oral, 30 minutes before oxotremorine 0.5 mg/kg s.c. As to the method: (5) Anti-cholinergic activity (Anti-oxotremorine hypothermia test)
Before each experiment the rectal temperature of the mice was recorded with a probe thermometer at a constant depth. The mice were divided into groups of 8 in such a way that the mean rectal temperature was the same in each group. Test compounds were administered orally 30 minutes before s.c. administration of oxotremorine (0.5 mg/kg).

Data set [2] has as its system spontaneous locomotion in mice. As to the kind of experiment: Spontaneous locomotor increasing activity. The data set is classed as in vivo. To be noted: for ED50: Mus musculus, 50% increase vs control, 95% confidence limits on next line, read-out: ED50 (increasing effect on spontaneous locomotion); for ED50 / % of increase of spontaneous locomotion: oral. As to the method:
(6) Spontaneous locomotor increasing activity
For each group 3 mice were used. Spontaneous locomotor activity was recorded for 15 minutes by a Varimex activity meter from 15 minutes after oral administration of a test compound.

Data set [3] has as its system bizarre behaviours of mice. Put plainly: Hallucinogenic activity (bizarre behaviours). The data set is classed as in vivo. To be noted: FIGS. 1 and 2. As to the method: (8) Hallucinogenic activity
Each of the five mice in each group was confined n a box for 15 minutes to let it adapt to its surroundings. The mouse was kept on a black disc of 74 cm in diameter for 2 minutes from 5 and 15 minutes after administration of a test compound. The number of bizarre behaviours (walking backwards, pivoting and the like) was counted.

Data set [4] deals with spontaneous locomotion in mice. Put plainly: Spontaneous locomotor decreasing activity. The class given is in vivo. Conditions: for ED50: Mus musculus, 50% decrease vs control, 95% confidence limits on a following line, read-out: ED50 (decreasing effect on spontaneous locomotion); for ED50 / % of decrease of spontaneous locomotion: mice, oral. From the text: (7) Spontaneous locomotor decreasing activity
For each group 5 mice were used.

[5] abbreviates: compared with imipramine, Table 2.

Consider `Cc1c(N(C)C)c(=O)n(-c2ccccc2)n1C` [Aminopyrine, reference compound], for which the ED30 in the data set with Carrageenin edema stood at 24 mg/kg. The median effective dose (ED50) (usually the dose at which the effect has come halfway, by size or by number of responders) with Acetic acid writhing is 58 mg/kg. Also, in the data set “Acute toxicity”, the LD50 (usually the dose expected to kill half of the subjects tested) at 72 h turned out to be 800 mg/kg.

With `CNCC1CCSc2c1n(C)c1ccccc21` (centres unmarked) [Compound 1, 4-Methylaminomethyl-5-methyl-2,3,4,5-tetrahydrothiopyrano[3,2-b]indole], the ED30 in the data set on Carrageenin edema was 9.4 mg/kg. For the same molecule, the 50% effective dose (ED50) in the data set on Acetic acid writhing was 6.4 mg/kg; in the data set on tetrabenazine ptosis, 24.4 mg/kg; in data set [1], 4.3 mg/kg; with oxotremorine hypothermia it was above 50 mg/kg; in data set [2] (mice) it was 5.6 mg/kg. Further, in “Acute toxicity”, the median lethal dose (LD50) at 72 h amounted to 400 mg/kg. Besides, the “anti-depressant activity (in words)” value (in the data set on tetrabenazine ptosis (setting [5]); in [1] (setting [5])) was “strong anti-depressant activity” each time. In addition, the “anti-cholinergic activity (in words)” value in the data set with oxotremorine hypothermia (Table 2) is recorded as “no anti-cholinergic acitivity”. For the same molecule, the “duration of spontaneous locomotion increasing activity” value in [2] (continuous/successive administration) was “more than 24 hours”. In addition, the “effect on spontaneous locomotion (in words)” value in data set [2] (mice, Table 3) is on record as “moderately increases spontaneous locomotion”. The “strength of locomotion increasing activity compared with methamphetamine (in words)” value in [2] (mice, Table 3) was “does not have so strong increasing activity as methamphethamine”. The “% of increase of spontaneous locomotion” value is on record as 54.3% in [2] (mice, 5 mg/kg); 91.4% in [2] (mice, 10 mg/kg); 123.0% in data set [2] (mice, 20 mg/kg). For the same molecule, the hallucinogenic activity entry in data set [3] is listed as “no hallucinogenic activity”.

In the case of `CCn1c2c(c3ccccc31)SCCC2CNC` (centres unmarked) [Compound 2, 4-methylaminomethyl-5-ethyl-2,3,4,5-tetrahydrothiopyrano[3,2-b]indole], the ED30 in the data set with Carrageenin edema stood at 9.4 mg/kg. Further, the median effective dose (ED50) in the data set on Acetic acid writhing was found to be 13.3 mg/kg. Moreover, the 50% lethal dose (LD50) at 72 h in the data set “Acute toxicity” stood at 800 mg/kg.

On to `CN(C)CC1CCSc2c1n(C)c1ccccc21` (centres unmarked) [Compound 3, 4-Dimethylaminomethyl-5-methyl-2,3,4,5-tetrahydrothiopyrano[3,2-b]indole], for which, in the data set on Carrageenin edema, the ED30 was 28.3 mg/kg. In the data set with Acetic acid writhing, the median effective dose (ED50) turned out to be 17.8 mg/kg. For the same molecule, the median lethal dose (LD50) at 72 h in “Acute toxicity” came to 400 mg/kg.

On to `CNCC1CC[S+]([O-])c2c1n(C)c1ccccc21` (centres unmarked) [Compound 4, 4-Methylaminomethyl-5-methyl-2,3,4,5-tetrahydrothiopyrano[3,2-b]indole 1-oxide], for which the ED50 in the data set on Acetic acid writhing was 49 mg/kg. Also, the median lethal dose (LD50) at 72 h in the data set “Acute toxicity” was above 1000 mg/kg.

With `C=CCn1c2c(c3ccccc31)SCCC2CNC` (centres unmarked) [Compound 5], the ED30 with Carrageenin edema is 17.5 mg/kg. The 50% effective dose (ED50) in the data set with Acetic acid writhing came out at 11.3 mg/kg. For the same molecule, the LD50 at 72 h in the data set “Acute toxicity” stood at 700 mg/kg.

For the molecule `CCN(CC)CCN(C)CC1CCSc2c1n(C)c1ccccc21` (centres unmarked) [Compound 6], the ED30 in the data set with Carrageenin edema was 13.4 mg/kg. For the same molecule, the ED50 in the data set on Acetic acid writhing worked out at 25.3 mg/kg. Moreover, the LD50 at 72 h in “Acute toxicity” was 700 mg/kg.

For `CN(C)CCCN1c2ccccc2CCc2ccccc21` [Imipramine], the ED50 with tetrabenazine ptosis came to 6 mg/kg; in data set [1], 102 mg/kg; in the data set with oxotremorine hypothermia, 4.5 mg/kg; in data set [4], 56 mg/kg. In addition, the “% of decrease of spontaneous locomotion” value is given as 19.1% in [4] (25 mg/kg), 56.0% in [4] (50 mg/kg) and 62.9% in data set [4] (100 mg/kg).

On to `CN[C@@H](C)Cc1ccccc1` [Methamphetamine, reference compound], for which the ED50 in data set [2] (mice) was found to be 0.6 mg/kg. Moreover, the “% of increase of spontaneous locomotion” value in data set [2] (mice, 0.5 mg/kg) came out at 45.4%; in data set [2] (mice, 1 mg/kg) it was 62.5%; in data set [2] (mice, 2 mg/kg), 137.8%.

As to `CNCC1CCSc2[nH]c3ccccc3c21` (centres unmarked) [Ref., 4methylaminomethyl-2,3,4,9-tetrahydro-thiopyrano [3,2b]indole HCl salt, reference compound], the ED50 in the data set with Acetic acid writhing is 4.2 mg/kg; with tetrabenazine ptosis it was above 50 mg/kg; in [1], 8.4 mg/kg; in the data set on oxotremorine hypothermia, above 50 mg/kg; in data set [4] it was 43 mg/kg. Also, in the data set “Acute toxicity”, the 50% lethal dose (LD50) at 72 h amounted to 330 mg/kg. For the same molecule, the “effect on spontaneous locomotion (in words)” value in [4] (Table 4) was “decreases the activity”. Further, the “% of decrease of spontaneous locomotion” value is 7.4% in [4] (25 mg/kg), 75.3% in data set [4] (50 mg/kg) and 97.2% in data set [4] (100 mg/kg). Also, the hallucinogenic activity entry in data set [3] is on record as “does”.
